Measurements as given in patent US8288552B2, “Dihydropyridone amidesas P2X7 modulators” (Roche Palo Alto LLC, priority 2008, dated 2012).

target: T1, P2X7 (UniProt Q99572); test: P2X7 pKi of Table 1; format: cell-based
T1 sequence (Q99572 1-595): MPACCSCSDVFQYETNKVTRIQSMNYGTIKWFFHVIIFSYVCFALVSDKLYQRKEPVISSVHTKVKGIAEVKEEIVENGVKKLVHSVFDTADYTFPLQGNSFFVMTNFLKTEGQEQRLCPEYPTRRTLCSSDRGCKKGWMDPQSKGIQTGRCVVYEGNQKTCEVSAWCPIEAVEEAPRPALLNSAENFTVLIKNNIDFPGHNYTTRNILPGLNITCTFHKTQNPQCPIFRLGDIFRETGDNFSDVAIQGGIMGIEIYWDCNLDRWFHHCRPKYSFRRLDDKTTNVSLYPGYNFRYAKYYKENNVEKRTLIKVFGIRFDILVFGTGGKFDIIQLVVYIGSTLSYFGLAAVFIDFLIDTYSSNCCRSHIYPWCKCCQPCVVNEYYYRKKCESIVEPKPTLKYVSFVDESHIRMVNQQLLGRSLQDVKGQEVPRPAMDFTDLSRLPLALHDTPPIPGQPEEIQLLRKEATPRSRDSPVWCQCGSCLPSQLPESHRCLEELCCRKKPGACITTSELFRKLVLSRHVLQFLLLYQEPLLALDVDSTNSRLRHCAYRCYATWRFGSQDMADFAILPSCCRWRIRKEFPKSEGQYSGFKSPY
Description: Intracellular Calcium Flux (FLIPR) Assay
Compound and Reagent Preparation
Stock solutions of compounds were prepared from powders as a 10 mM DMSO stock solution. These solutions were stored at RT during the two week period of these experiments to prevent freeze-thaw of the DMSO stocks. The DMSO stocks were added to the appropriate assay buffer at a concentration of 10 μM, and then diluted serially to the final concentrations that were tested. […] The aqueous solutions of compounds as well as ATP (Sigma A7699) and BzATP (Sigma B6396) were prepared fresh for each day of experiment.
1321N1 cells stably expressing the full length human P2X7 gene (1321N1-hP2X7) and HEK293 cells stably expressing the full length rat P2X7 gene (HEK293-rP2X7) were obtained from the Roche Cell Culture Facility. 1321N1-hP2X7 cells were grown in Dulbecco's Modified Eagle's Medium (DMEM) high glucose supplemented with 10% FBS and 250 μg/mL G418. HEK293-rP2X7 cells were grown in DMEM/F-12 supplemented with 10% FBS, 1 mM CaCl2, 2 mM MgCl2, 2 mM L-Glutamine and 500 μg/ml G418. Cells were split such that they never became >70% confluent.
Intracellular Calcium Flux (FLIPR)
On the day prior to the experiment, 1321N1-hP2X7 or HEK293-rP2X7 cells were released into suspension with calcium-free PBS+Versene and washed by centrifugation with calcium-free PBS to remove the Versene. Cells were resuspended in growth medium at a density of 2.5×10^5 cells/mL and seeded into black walled, clear bottom 96 well plates (50,000 cells/well) approximately 18 hr prior to intracellular calcium flux experiments.
On the day of the experiment, plates were washed with FLIPR buffer (calcium- and magnesium-free Hank's Balanced Salt Solution (HBSS) supplemented with 10 mM Hepes, 2.5 mM probenecid and 2 mM calcium chloride) using a BIO-TEK 96 channel plate washer and incubated with […] fluo-3 dye at 37° C. for one hr. The dye was then removed by plate washing and the cells were allowed to equilibrate for 20 min at room temperature with antagonist or vehicle (FLIPR buffer). Agonist (100 μM BzATP final concentration for hP2X7; 5 μM BzATP final concentration or rP2X7) was added online with the FLIPR and fluorescence measurements made at 1 sec intervals for 60 sec followed by 3 sec intervals for a further 4 min (5 min total). A final addition of 5 μM ionomycin was made and the maximal BzATP-evoked fluorescence normalized to the maximal ionomycin-evoked fluorescence.

pKi | Structure (SMILES)
7.4925 | COc1cc(Br)c(NC(=O)C2=CNC(=O)CC2c2ccccc2)cc1OC (stereo not drawn) [Compound 1, 6-Oxo-4-phenyl-1,4,5,6-tetrahydro-pyridine-3-carboxylic acid(2-bromo-4,5-dimethoxy-phenyl)-amide]
6.595 | COc1cc(NC(=O)C2=CNC(=O)CC2c2ccccc2)c(Br)cc1C (stereo not drawn) [Compound 2, 6-Oxo-4-phenyl-1,4,5,6-tetrahydro-pyridine-3-carboxylic acid(2-bromo-5-methoxy-4-methyl-phenyl)-amide]
5.95 | COc1cc(NC(=O)C2=CNC(=O)CC2c2ccccc2)c(Br)cc1Cl (stereo not drawn) [Compound 3, 6-Oxo-4-phenyl-1,4,5,6-tetrahydro-pyridine-3-carboxylic acid(2-bromo-4-chloro-5-methoxy-phenyl)-]
6.6 | COc1cc(NC(=O)C2=CNC(=O)CC2c2ccc(F)cc2)c(Br)cc1C (stereo not drawn) [Compound 4, 4-(4-Fluoro-phenyl)-6-oxo-1,4,5,6-tetrahydro-pyridine-3-carboxylic acid(2-bromo-5-methoxy-4-methyl-phenyl)-amide]
6.726 | COc1cc(NC(=O)C2=CNC(=O)CC2c2cccc(F)c2)c(Br)cc1C (stereo not drawn) [Compound 5, 4-(3-Fluoro-phenyl)-6-oxo-1,4,5,6-tetrahydro-pyridine-3-carboxylic acid(2-bromo-5-methoxy-4-methyl-phenyl)-amide]
6.166 | COc1cc(NC(=O)C2=CNC(=O)CC2c2ccc(F)cc2)c(Br)cc1Cl (stereo not drawn) [Compound 6, 4-(4-Fluoro-phenyl)-6-oxo-1,4,5,6-tetrahydro-pyridine-3-carboxylic acid(2-bromo-4-chloro-5-methoxy-phenyl)-amide]
7.463 | COc1cc(Br)c(NC(=O)C2=CNC(=O)CC2c2ccc(F)cc2)cc1OC (stereo not drawn) [Compound 7, 4-(4-Fluoro-phenyl)-6-oxo-1,4,5,6-tetrahydro-pyridine-3-carboxylic acid(2-bromo-4,5-dimethoxy-phenyl)-amide]
6.766 | COc1cc(NC(=O)C2=CNC(=O)CC2c2cccc(F)c2)c(Br)cc1Cl (stereo not drawn) [Compound 9, 4-(3-Fluoro-phenyl)-6-oxo-1,4,5,6-tetrahydro-pyridine-3-carboxylic acid(2-bromo-4-chloro-5-methoxy-phenyl)-amide]
6.155 | COc1cc(Br)c(NC(=O)C2=CNC(=O)C[C@@H]2c2ccccc2)cc1OC [Compound 12, (R)-6-Oxo-4-phenyl-1,4,5,6-tetrahydro-pyridine-3-carboxylic acid(2-bromo-4,5-dimethoxy-phenyl)-amide]
7.455 | COc1cc(Br)c(NC(=O)C2=CNC(=O)C[C@H]2c2ccccc2)cc1OC [Compound 13, (S)-6-Oxo-4-phenyl-1,4,5,6-tetrahydro-pyridine-3-carboxylic acid(2-bromo-4,5-dimethoxy-phenyl)-amide]
6.77 | COc1cc(Br)c(NC(=O)C2=CNC(=O)CC2c2cccc(F)c2)cc1OC (stereo not drawn) [Compound 17, 4-(3-Fluoro-phenyl)-6-oxo-1,4,5,6-tetrahydro-pyridine-3-carboxylic acid(2-bromo-4,5-dimethoxy-phenyl)-amide]
6.19 | COc1ccc(Br)c(NC(=O)C2=CNC(=O)CC2c2cccc(F)c2)c1 (stereo not drawn) [Compound 19, 4-(3-Fluoro-phenyl)-6-oxo-1,4,5,6-tetrahydro-pyridine-3-carboxylic acid(2-bromo-5-methoxy-phenyl)-amide]
5.92 | COC(=O)c1cc(Br)c(NC(=O)C2=CNC(=O)CC2c2cccc(F)c2)cc1OC (stereo not drawn) [Compound 23, 5-Bromo-4-{[4-(3-fluoro-phenyl)-6-oxo-1,4,5,6-tetrahydro-pyridine-3-carbonyl]-amino}-2-methoxy-benzoic acid methyl ester]
7.69 | COc1cc(C)c(NC(=O)C2=CNC(=O)CC2c2cccc(F)c2)cc1OC (stereo not drawn) [Compound 24, 4-(3-Fluoro-phenyl)-6-oxo-1,4,5,6-tetrahydro-pyridine-3-carboxylic acid(4,5-dimethoxy-2-methyl-phenyl)-amide]
6.405 | COc1cc(NC(=O)C2=CNC(=O)C[C@@H]2c2cccc(F)c2)c(Br)cc1C [Compound 29, (R)-4-(3-Fluoro-phenyl)-6-oxo-1,4,5,6-tetrahydro-pyridine-3-carboxylic acid(2-bromo-5-methoxy-4-methyl-phenyl)-amide]

Continued, compound first:

Structure (SMILES) | pKi
COc1cc(NC(=O)C2=CNC(=O)CC2c2ccc(F)cc2)ccc1Cl (stereo not drawn) [Compound 10, 4-(4-Fluoro-phenyl)-6-oxo-1,4,5,6-tetrahydro-pyridine-3-carboxylic acid(4-chloro-3-methoxy-phenyl)-amide] | 5.543
COc1cc(NC(=O)C2=CNC(=O)CC2c2ccc(F)cc2)ccc1C (stereo not drawn) [Compound 11, 4-(4-Fluoro-phenyl)-6-oxo-1,4,5,6-tetrahydro-pyridine-3 carboxylic acid(3-methoxy-4-methyl-phenyl)-amide] | 6.03
Cc1cc(C)cc(NC(=O)C2=CNC(=O)CC2c2ccc(F)cc2)c1 (stereo not drawn) [Compound 14, 4-(4-Fluoro-phenyl)-6-oxo-1,4,5,6-tetrahydro-pyridine-3-carboxylic acid(3,5-dimethyl-phenyl)-amide] | 6.535
COC(=O)c1ccc(C)c(NC(=O)C2=CNC(=O)CC2c2cccc(F)c2)c1 (stereo not drawn) [Compound 16, 3-{[4-(3-Fluoro-phenyl)-6-oxo-1,4,5,6-tetrahydro-pyridine-3-carbonyl]-amino}-4-methyl-benzoic acid methyl ester] | 6.43
COc1ccc(Br)c(NC(=O)C2=CNC(=O)CC2c2ccc(F)cc2)c1 (stereo not drawn) [Compound 18, 4-(4-Fluoro-phenyl)-6-oxo-1,4,5,6-tetrahydro-pyridine-3-carboxylic acid(2-bromo-5-methoxy-phenyl)-amide] | 6.08
COc1ccc(C)c(NC(=O)C2=CNC(=O)CC2c2cccc(F)c2)c1 (stereo not drawn) [Compound 20, 4-(3-Fluoro-phenyl)-6-oxo-1,4,5,6-tetrahydro-pyridine-3-carboxylic acid(5-methoxy-2-methyl-phenyl)-amide] | 6.815
CC(=O)Nc1ccc(Cl)c(NC(=O)C2=CNC(=O)CC2c2cccc(F)c2)c1 (stereo not drawn) [Compound 21, 4-(3-Fluoro-phenyl)-6-oxo-1,4,5,6-tetrahydro-pyridine-3-carboxylic acid(5-acetylamino-2-chloro-phenyl)-amide] | 6.02
COc1cc(NC(=O)C2=CNC(=O)CC2c2cccc(F)c2)c(Cl)cc1Cl (stereo not drawn) [Compound 22, 4-(3-Fluoro-phenyl)-6-oxo-1,4,5,6-tetrahydro-pyridine-3-carboxylic acid(2,4-dichloro-5-methoxy-phenyl)-amide] | 6.12
O=C1CC(c2cccc(F)c2)C(C(=O)Nc2cc(O)ccc2Cl)=CN1 (stereo not drawn) [Compound 25, 4-(3-Fluoro-phenyl)-6-oxo-1,4,5,6-tetrahydro-pyridine-3-carboxylic acid(2-chloro-5-hydroxy-phenyl)-amide] | 5.395
Cc1ccc(Cl)c(NC(=O)C2=CNC(=O)CC2c2cccc(F)c2)c1F (stereo not drawn) [Compound 26, 4-(3-Fluoro-phenyl)-6-oxo-1,4,5,6-tetrahydro-pyridine-3-carboxylic acid(6-chloro-2-fluoro-3-methyl-phenyl)-amide] | 5.73
O=C1CC(c2cccc(F)c2)C(C(=O)Nc2cc(Cl)ccc2OC(F)F)=CN1 (stereo not drawn) [Compound 27, 4-(3-Fluoro-phenyl)-6-oxo-1,4,5,6-tetrahydro-pyridine-3-carboxylic acid(5-chloro-2-difluoromethoxy-phenyl)-amide] | 5.18
O=C1CC(c2cccc(F)c2)C(C(=O)Nc2c(F)cc(F)cc2Cl)=CN1 (stereo not drawn) [Compound 28, 4-(3-Fluoro-phenyl)-6-oxo-1,4,5,6-tetrahydro-pyridine-3-carboxylic acid(2-chloro-4,6-difluoro-phenyl)-amide] | 5.215
